Results on 2 molecules are retold here after patent publication US5149632A, “Method for the detection of molds in foodstuffs and human and animal body fluids” (De Staat Der Nedelranden Vertengwoordigd Door De Minister …, priority 1988, dated 1992).

Assay [1] has as its target rabbit anti-EPS antibodies. Nature of the assay: competition ELISA: inhibition of binding of rabbit antibodies to EPS (FIG. 3). The settings on record: binding of antibodies evoked in rabbits to EPS; for 50 per cent inhibition concentration: FIG. 3, EPS species not stated. The method, then:
(§1) The inhibition characteristics were determined using a "competition" enzyme-linked immunosorbent assay (ELISA). Microtiter polyvinyl wells (Cooke, Dynatech) were coated with polysaccharides which had been isolated from culture fluids of moulds. For this purpose 0.1 ml of 0.07 M phosphate buffer, pH 7.2, with 0.15 M NaCl (PBS) and 1 μg polysaccharide were added to each well of the plate. After incubating for one night with shaking at 20° C., the wells were washed under a continuous stream of tap water with 0.05% Tween 20 for 0.5 min. A prepared mixture of 50 μl antibodies (rabbit IgG and human sera respectively), diluted in PBS, which contained 0.05% Tween 20 and 2% bovine serum albumin, and 50 μl inhibitor, which was diluted in the same buffer, were then added. After an incubation time of 60 minutes the wells were washed in the manner described above. The quantity of antibodies which was absorbed on the polysaccharides was determined with sheep-anti-rabbit-globulins and with sheep-anti-human-globulins respectively which were conjugated to peroxidase. For this purpose 0.1 ml conjugate diluted in PBS, which contained 0.05% Tween 20, was added to each well (dilution was checked using the checker board titration). The incubation and the washing were carried out in the manner described for the prepared test sample (mixture of serum or IgG and inhibitor).
(§2) The enzyme reaction was determined spectrophotometrically at 449 nm after adding a solution of 5-amino-salicylic acid and H2 O2 (0.1 ml 0.07% 5-amino-salicylic acid, pH 6.0, and 0.005% H2 O2 were added to each well) and an incubation for 30 minutes at 20° C.
The human serum and rabbit IgG solutions were diluted to concentrations at which the extinction coefficients without inhibitor start to decrease (extinction value approximately 0.70). Methyl-β-D-galactofuranoside and the dimers to heptamers inclusive of (1-5)-coupled β-D-galactofuranosides were used as inhibitors. […] The percentage inhibition was calculated as 100--100 (extinction with inhibitor - extinction without inhibitor).
For orientation: In an ELISA, binding on a coated surface is turned into a signal by an enzyme label.

In assay [2] the test system is human antibody binding to extracellular polysaccharides of Penicillium and Aspergillus species. Kind of assay: competition ELISA: inhibition of human antibody binding of 40 serum samples to EPS. The settings on record: 40 human serum samples. The protocol: A total of 40 serum samples were collected arbitrarily from healthy Dutch males and females aged between 15 and 65.
as §1, §2
The human serum and rabbit IgG solutions were diluted to concentrations at which the extinction coefficients without inhibitor start to decrease (extinction value approximately 0.70). Methyl-β-D-galactofuranoside and the dimers to heptamers inclusive of (1-5)-coupled β-D-galactofuranosides were used as inhibitors. The inhibition effect of dimers of (1-2)-, (1-3)- and (1-6)-coupled β-D-galactofuranoside was also investigated (see Table B). The percentage inhibition was calculated as 100--100 (extinction with inhibitor - extinction without inhibitor).
The inhibition of the human antibody binding to EPS of moulds was tested with 40 serum samples using the tetramer of (1-5)-coupled β-D-galactofuranoside as inhibitor. The EPS in these tests originated from P. digitatum, P. cyclopium, P. dierckxii, P. funiculosum, A. niger, A. fumigatus and A. repens. Antibodies against P. funiculosum were not detectable in any serum sample, while antibodies against the other EPS derivatives were present in all 40 serum samples. The titers (reciprocal value of the dilution which gives the extinction equal to the mean value for 10 blank samples+2.81×standard deviation of these blank samples; confidence limit 99%), were in a range from 400 to 6,000. There was a significant correlation 99%) between the presence of antibodies in each serum and against the various Penicillium/Aspergillus EPS derivatives which were tested (Spearman Rank correlation test).

Another assay deals with rabbit IgG anti-EPS. Nature of the assay: specific inhibition test in sandwich ELISA on walnut and herb samples. The assay is classed as binding. The settings on record: 50 μg/ml inhibitor. The method, then:
A sandwich ELISA was used to ascertain whether (1-5)-coupled β-D-galactofuranosyl radicals were capable of binding antibodies. 0.1 ml portions containing 10 μg/ml rabbit IgG anti-EPS, which was diluted in PBS, were introduced into wells of polyvinyl plates and incubated overnight with shaking at 20° C. After washing in the manner described above, 0.1 ml samples containing β-(1-5)coupled galactofuranosyl radicals in PBS with 0.05% Tween 20 and 2% bovine serum albumin were added. After an incubation time of 60 minutes the plates were washed. 0.1 ml of an optimum dilution (=dilution was checked using the checker board titration) of rabbit IgG anti-EPS, conjugated with peroxidase, diluted in PBS with 0.05% Tween 20 was then added to each well. The incubation and the washing were carried out in the manner described above. The enzyme reaction was also determined in the manner described above.
In addition an immunological determination, described under (F), of Penicillium and Aspergillus species was carried out on 16 samples of walnuts and 9 samples of herbs, use being made of rabbit IgG and, respectively 50 μg/ml of a framer of (1-5)-coupled β-D-galactofuranoside per test sample. The EPS antigen possibly present in the abovementioned products was extracted by boiling with a phosphate-buffered physiological saline solution.

Turning to `CO[C@@H]1O[C@@H]([C@H](O)CO)[C@H](O)[C@H]1O` [monomer, Methyl β-D-galactofuranoside], the “50 per cent inhibition concentration” value in assay [1] is on record as “approximately 10,000 μg/ml”.

As to “tetramer of (1-5)-coupled β-D-galactofuranoside”, the “concentration giving complete inhibition (100%)” value in assay [1] is 100 µg/mL. The “50 per cent inhibition concentration” value in assay [1] is 30 µg/mL. Also, the “Number of samples with an inhibition of 25%” value in assay [2] (inhibitor 4 μg/ml) is 15; in assay [2] (inhibitor 20 μg/ml), 34; in assay [2] (inhibitor 100 μg/ml), 36; in assay [2] (inhibitor 500 μg/ml) it was 37. The “Number of samples with an inhibition of 50%” value in assay [2] (inhibitor 4 μg/ml) came out at 0; in assay [2] (inhibitor 20 μg/ml), 12; in assay [2] (inhibitor 100 μg/ml), 32; in assay [2] (inhibitor 500 μg/ml), 36. The “Number of samples with an inhibition of 90%” value in assay [2] (inhibitor 4 μg/ml) worked out at 0; in assay [2] (inhibitor 20 μg/ml), 0; in assay [2] (inhibitor 100 μg/ml), 0; in assay [2] (inhibitor 500 μg/ml), 15. Besides, the “Number of samples with inhibition >50%” value with rabbit IgG anti-EPS (Herbs, 4 samples, ELISA titer >50,000) stood at 4; in the assay with rabbit IgG anti-EPS (Herbs, 5 samples, ELISA titer 5000-50,000), 5; with rabbit IgG anti-EPS (Nuts, 3 samples, ELISA titer 100-500), 3; with rabbit IgG anti-EPS (Nuts, 4 samples, ELISA titer 5000-50,000) it was 4; with rabbit IgG anti-EPS (Nuts, 9 samples, ELISA titer 500-5000), 7.
